# From PMC8982266 (Journal of medicinal chemistry, 2015)
# Legend:
# MRSA cells = test: Time kill assay; assay type: cell-based, Staphylococcus aureus
# [1] = tested on: human red blood cells (hRBCs)
# [2] = tested on: P. aeruginosa clinical isolates; test: Growth with efflux inhibitor reserpine; assay type: cell-based, Pseudomonas aeruginosa; conditions: P. aeruginosa isolate 1420
# human A549 cells = test: Cytotoxicity MTT assay; assay type: cell-based; conditions: for IC50: read-out: IC50 A549, toxicity towards human A549 cells, MTT, 48 hours
# [3] = tested on: Pseudomonas aeruginosa biofilm; test: Minimum biofilm eradication concentration; assay type: cell-based; conditions: P. aeruginosa biofilm; purified compounds
# Pseudomonas aeruginosa = test: MIC micro broth dilution assay; assay type: cell-based; conditions: for MIC: P. aeruginosa, purified compounds; for concentration inhibiting growth of 90% of isolates: panel of clinical P. aeruginosa isolates
# [4] = tested on: Staphylococcus aureus (USA300 strain FPR3757); test: Murine model of lethal peritonitis; assay type: in vivo; conditions: 2xMIC, I.M., 1h post-infection; six mice per group
# A. baumannii = test: Serial passage resistance assay; assay type: cell-based, Acinetobacter baumannii; conditions: 8 passages
# [5] = tested on: Klebsiella pneumoniae biofilm; test: Minimum biofilm eradication concentration; assay type: cell-based; conditions: K. pneumoniae biofilm; purified compounds
# K. pneumoniae = test: Serial passage resistance assay; assay type: cell-based, Klebsiella pneumoniae; conditions: 8 passages
# [6] = tested on: Enterococcus faecium biofilm; test: Minimum biofilm eradication concentration; assay type: cell-based; conditions: E. faecium biofilm; purified compounds
# [7] = tested on: Staphylococcus aureus biofilm; test: Minimum biofilm eradication concentration; assay type: cell-based; conditions: S. aureus biofilm; purified compounds
# Staphylococcus aureus = test: MIC micro broth dilution assay; assay type: cell-based; conditions: S. aureus; purified compounds
# ESKAPE pathogens = test: MIC micro broth dilution assay, all six species together; assay type: cell-based
# S. aureus = test: Serial passage resistance assay; assay type: cell-based, Staphylococcus aureus; conditions: 8 passages, concentration doubled each day
# [8] = tested on: Acinetobacter baumannii biofilm; test: Minimum biofilm eradication concentration; assay type: cell-based; conditions: A. baumannii biofilm; purified compounds
# E. cloacae [9] = assay type: cell-based; conditions: 8 passages
# Enterococcus faecium = test: MIC micro broth dilution assay; assay type: cell-based; conditions: E. faecium; purified compounds
# Acinetobacter baumannii = test: MIC micro broth dilution assay; assay type: cell-based; conditions: A. baumannii; purified compounds
# E. cloacae strain 1446 = test: Growth with efflux inhibitor reserpine; assay type: cell-based; conditions: with 100 μM of reserpine
# E. cloacae [10] = test: MIC micro broth dilution assay; assay type: cell-based; conditions: for MIC: E. cloacae, purified compounds; for concentration inhibiting growth of 90% of isolates: panel of clinical E. cloacae isolates
# Klebsiella pneumoniae = test: MIC micro broth dilution assay; assay type: cell-based; conditions: for MIC: K. pneumoniae, purified compounds; for concentration inhibiting growth of 90% of isolates: panel of clinical K. pneumoniae isolates
# E. cloacae biofilm = test: Minimum biofilm eradication concentration; assay type: cell-based; conditions: purified compounds
# [11] = tested on: K. pneumoniae strain 1441; test: Growth with efflux inhibitor reserpine; assay type: cell-based, Klebsiella pneumoniae; conditions: with 100 μM of reserpine
# P. aeruginosa = assay type: cell-based, Pseudomonas aeruginosa; conditions: 8 passages
Compound,IC50 (human A549 cells) [µM],MBEC50 [3] [µM],MIC (Pseudomonas aeruginosa) [µM],concentration inhibiting growth of 90% of isolates (Pseudomonas aeruginosa) [µM],survival of infected mice over 5 days [4],MBEC50 [5] [µM],MBEC50 [7] [µM],MIC (Staphylococcus aureus) [µM],concentration with antibacterial activity against all 6 species (ESKAPE pathogens) [µM],fold increase in MIC after serial passage (S. aureus),MBEC50 [8] [µM],MIC (Enterococcus faecium) [µM],MIC (Acinetobacter baumannii) [µM],MIC (E. cloacae [10]) [µM],concentration inhibiting growth of 90% of isolates (E. cloacae [10]) [µM],MIC (Klebsiella pneumoniae) [µM],concentration inhibiting growth of 90% of isolates (Klebsiella pneumoniae) [µM],MBEC50 (E. cloacae biofilm) [µM],other results
benzalkonium chloride [reference compound],–,–,–,–,–,–,–,–,–,–,–,–,–,–,–,–,–,–,"cells recovered / surviving exposure (optical density relative to start) (MRSA cells; MRSA, 2 h, 2.0% SDS, 0.001% benzalkonium chloride, 0.001% benzethonium chloride): 29%"
Triton-X100,–,–,–,–,–,–,–,–,–,–,–,–,–,–,–,–,–,–,"hemolysis, positive control [1]: 100%"
"lysostaphin: a S. aureus specific lytic agent, positive control",–,–,–,–,–,–,–,–,–,–,–,–,–,–,–,–,–,–,"lysis of MRSA cells (MRSA cells; within 10 minutes of exposure, 4 μM lysostaphin): > 50%"
"COC(=O)[C@H]1[C@H]2C[C@@H]3c4[nH]c5cc(OC)ccc5c4CCN3C[C@H]2C[C@@H](OC(=O)c2cc(OC)c(OC)c(OC)c2)[C@@H]1OC [reserpine, reference compound]",–,–,–,–,–,–,–,–,–,–,–,–,–,–,–,–,–,–,"effect on growth, reserpine alone ([2]; 100 μM of reserpine): no effect"
(S)-4-(cyclohexylmethyl)-3-hexyl-1-(4-((S)-2-imino-3-(3-(trifluoromethyl)phenethyl)imidazolidin-4-yl)butyl)imidazolidin-2-imine [compound 7],66,46,1.5,10,1 mouse lost on each of days 2 and 4,4.8,4.4,1.5,< 2,four-fold,13,1.5,1.5,1.5,2,1.5,5,15,"A549 recovery (human A549 cells; above 45 μM, at concentrations up to 225 μM): ≥ 33%; A549 recovery (human A549 cells; at 45 μM): > 60%; fold increase in MIC after serial passage (A. baumannii): ≤ 8 fold; fold increase in MIC after serial passage (K. pneumoniae): ≤ 8 fold; MBEC50 [6]: 26 µM; fold increase in MIC after serial passage (E. cloacae [9]): ≤ 8 fold; effect on growth, compound in combination with reserpine (E. cloacae strain 1446): complete inhibition of growth"
(S)-1-(4-((S)-3-(4-cyclohexylbutyl)-2-iminoimidazolidin-4-yl)butyl)-4-(cyclohexylmethyl)-3-hexylimidazolidin-2-imine [compound 16],> 225,34,1.6,5,only a single mouse succumbing to infection after the first day,6.3,7.6,1.6,< 2,16 fold,14,1.6,1.6,1.6,2,1.6,5,13,"A549 recovery (human A549 cells; at concentrations up to 100 μM): > 65%; effect on growth, compound in combination with reserpine [11]: complete inhibition of growth; fold increase in MIC after serial passage (A. baumannii): ≤ 8 fold; fold increase in MIC after serial passage (K. pneumoniae): ≤ 8 fold; fold increase in MIC after serial passage (P. aeruginosa): 8 fold; fold increase in MIC after serial passage (E. cloacae [9]): ≤ 8 fold"
(S)-4-butyl-3-hexyl-1-(4-((S)-2-imino-3-(3-(trifluoromethyl)phenethyl)imidazolidin-4-yl)butyl)imidazolidin-2-imine [compound 1],164,20,1.6,10,all mice survived,7.0,14,1.6,< 2,two-fold,15,1.6,1.6,1.6,10,1.6,10,13,"MBEC50 [6]: 39 µM; effect on growth, compound combined with reserpine ([2]; 2 μM compound + 100 μM reserpine): strongly inhibited growth; effect on growth, compound alone ([2]; 2 μM of compound, no reserpine): no effect"
"CCCC[C@H]1CN(CCCC[C@H]2CNC(=N)N2CCc2cccc(C(F)(F)F)c2)C(=N)N1CCCCC1CCCCC1 [compound 2, (S)-4-butyl-3-(4-cyclohexylbutyl)-1-(4-((S)-2-imino-3-(3-(trifluoromethyl)phenethyl)imidazolidin-4-yl)butyl)imidazolidin-2-imine]",–,–,–,5,only a single mouse succumbing to infection after the first day,–,–,–,< 2,two-fold,–,–,–,–,5,–,5,–,–
